Patent US10125134B2 (Mirati Therapeutics, Inc., priority 2016, dated 2018)
Where two headings read alike, the source gives them in different places.

How the values were obtained:
[1] = system: NCI-H358 cells (express KRas G12C), Phospho-ERK; assay: Cellular inhibition of KRas G12C: Phospho-ERK in NCI-H358 cells; assay type: cell-based
Procedure, shortened: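 IC50 derived by 4-parameter fit of GAPDH-normalized pERK(Thr202/Tyr204) signal, as percent of DMSO control. Signal came from in-cell immunodetection with infrared secondaries after 3 h compound exposure of KRas G12C NCI-H358 cells at 0.5% DMSO.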

KRas G12C = KRas G12C (Homo sapiens, UniProt P01116, C118S/C51S/C80L/G12C); assay: KRas G12C Modification Assay (LCMS detection of covalent adduct); assay type: binding
Procedure, shortened: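 Cys-light KRas G12C mutant protein incubated with compound in K-Ras assay buffer, reactions quenched at set time points with 25 mM acetic acid and analysed by intact-protein LC/MS on a C-3 column. Deconvoluted mass heights expressed as percent of control (POC) relative to compound-free protein.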

[2] = Homo sapiens, NCI-H358, 3 h, pERK(Thr202/Tyr204) normalized with GAPDH, NCI-H358 cells, 3 hours, read-out: IC50
[3] = normalized percent of control, tested at 5 μM concentration for 3 hours
[4] = Homo sapiens, pERK(Thr202/Tyr204) normalized with GAPDH, NCI-H358 cells, 3 hours, read-out: IC50
[5] = pERK(Thr202/Tyr204) normalized with GAPDH, NCI-H358 cells, 3 hours, read-out: IC50

SMILES | POC (KRas G12C; [3]) | IC50 [1, 2] [nM] | further results
C=CC(=O)N1CCN(c2nc(OCCN3CCC[C@H](OC)C3)nc3c2CCN(c2cc(O)cc4ccccc24)C3)CC1 [Example 98, (S)-1-(4-(7-(3-hydroxynaphthalen-1-yl)-2-(2-(3-methoxypiperidin-1-yl)ethoxy)-5,6,7,8-tetrahydropyrido[3,4-d]pyrimidin-4-yl)piperazin-1-yl)prop-2-en-1-one] | C (“C”>50% POC) | > 1000 | 
C=CC(=O)N1CCN(c2nc(OCCCO)nc3c2CCN(c2cc(O)cc4ccccc24)C3)CC1 [Example 184, 1-[4-[7-(3-hydroxy-1-naphthyl)-2-(3-hydroxypropoxy)-6,8-dihydro-5H-pyrido[3,4-d]pyrimidin-4-yl]piperazin-1-yl]prop-2-en-1-one] | C (“C”>50% POC) | > 1000 | 
C=CC(=O)N1CCN(c2nc(OCCN(C)C)nc3c2CCN(c2cc(O)cc4ccccc24)C3)CC1CCO (stereo not shown) [Example 171, 1-(4-(2-(2-(dimethylamino)ethoxy)-7-(3-hydroxynaphthalen-1-yl)-5,6,7,8-tetrahydropyrido[3,4-d]pyrimidin-4-yl)-2-(2-hydroxyethyl)piperazin-1-yl)prop-2-en-1-one] |  |  | IC50 ([1]; Homo sapiens, NCI-H358, 3 h): > 1000 nM; POC (KRas G12C; 5 µM): C (key: “A”≤25% POC; “B”>25% POC−≤50% POC; “C”>50% POC)
C=CC(=O)N1CCN(c2nc(OCCN(C)C)nc3c2CCN(c2cc(O)cc4ccccc24)C3)C[C@@H]1C [Example 14] | C (“C”>50% POC) | > 1000 | 
C=CC(=O)N1CCN(c2nc(NCCCN3CCOCC3)nc3c2CCN(c2cc(O)cc4ccccc24)C3)CC1 [Example 133, 1-[4-[7-(3-hydroxy-1-naphthyl)-2-(3-morpholinopropylamino)-6,8-dihydro-5H-pyrido[3,4-d]pyrimidin-4-yl]piperazin-1-yl]prop-2-en-1-one] | C (“C”>50% POC) |  | IC50 [1, 4]: > 1000 nM
C=CC(=O)N1CCN(c2nc(OCCCN(C)C)nc3c2CCN(C(C)c2ccccc2)C3)CC1 (stereo not shown) [Example 25, 1-(4-(2-(3-(dimethylamino)propoxy)-7-(1-phenylethyl)-5,6,7,8-tetrahydropyrido[3,4-d]pyrimidin-4-yl)piperazin-1-yl)prop-2-en-1-one] | A (“A”≤25% POC) |  | IC50 [1, 4]: > 1000 nM
C=CC(=O)N1CCN(c2nc(OCCN3CC(F)(F)C3)nc3c2CCN(c2cc(O)cc4ccccc24)C3)CC1 [Example 138, 1-[4-[2-[2-(3,3-difluoroazetidin-1-yl)ethoxy]-7-(3-hydroxy-1-naphthyl)-6,8-dihydro-5H-pyrido[3,4-d]pyrimidin-4-yl]piperazin-1-yl]prop-2-en-1-one] | C (“C”>50% POC) | > 1000 | 
C=CC(=O)N1CCN(c2ncnc3c2CCN(c2cncc4ccccc24)C3)CC1 [Example 69, 1-(4-(7-(isoquinolin-4-yl)-5,6,7,8-tetrahydropyrido[3,4-d]pyrimidin-4-yl)piperazin-1-yl)prop-2-en-1-one] | A (“A”≤25% POC) |  | IC50 [1, 4]: > 1000 nM
C=CC(=O)N1CCN(c2nc(O[C@H](C)CN(C)C)nc3c2CCN(c2cc(O)cc4ccccc24)C3)CC1 [Example 19, (R)-1-(4-(2-((1-(dimethylamino)propan-2-yl)oxy)-7-(3-hydroxynaphthalen-1-yl)-5,6,7,8-tetrahydropyrido[3,4-d]pyrimidin-4-yl)piperazin-1-yl)prop-2-en-1-one] | C (“C”>50% POC) | 0.1 to 1000 | 
C=CC(=O)N1CCN(c2nc(OCC3CN(C)CCN3C)nc3c2CCN(c2cc(O)cc4ccccc24)C3)CC1 (stereo not shown) [Example 219, 1-(4-(2-((1,4-dimethylpiperazin-2-yl)methoxy)-7-(3-hydroxynaphthalen-1-yl)-5,6,7,8-tetrahydropyrido[3,4-d]pyrimidin-4-yl)piperazin-1-yl)prop-2-en-1-one] | C (“C”>50% POC) | > 1000 | 
C=CC(=O)N1CCN(c2nc(OCCCN3CCCCC3)nc3c2CCN(c2c(C)ccc4[nH]ncc24)C3)CC1 [Example 160, 1-(4-(7-(5-methyl-1H-indazol-4-yl)-2-(3-(piperidin-1-yl)propoxy)-5,6,7,8-tetrahydropyrido[3,4-d]pyrimidin-4-yl)piperazin-1-yl)prop-2-en-1-one] | C (“C”>50% POC) |  | IC50 [1, 4]: > 1000 nM

Further lines, with some results ahead:

POC (KRas G12C; [3]) | SMILES | IC50 [1, 2] [nM] | further results
C (“C”>50% POC) | C=CC(=O)N1CCN(c2nc(OC[C@H]3CN(C)CCN3)nc3c2CCN(c2cccc4ccccc24)C3)CC1CC#N (stereo partly drawn) [Example 224, 2-(1-acryloyl-4-(2-(((R)-4-methylpiperazin-2-yl)methoxy)-7-(naphthalen-1-yl)-5,6,7,8-tetrahydropyrido[3,4-d]pyrimidin-4-yl)piperazin-2-yl)acetonitrile] | 0.1 to 1000 | 
C (“C”>50% POC) | C=CC(=O)N1CCN(c2nc(OC[C@@H]3CCCN3C)nc3c2CCN(c2ccc(F)c4ccccc24)C3)CC1CC#N (stereo partly drawn) [Example 246, 2-[4-[7-(4-fluoro-1-naphthyl)-2-[[(2S)-1-methylpyrrolidin-2-yl]methoxy]-6,8-dihydro-5H-pyrido[3,4-d]pyrimidin-4-yl]-1-prop-2-enoyl-piperazin-2-yl]acetonitrile] | 0.1 to 1000 | 
C (“C”>50% POC) | C=CC(=O)N1CCN(c2nc(OC[C@@H]3CCCN3C)nc3c2CCN(c2ccccc2C(F)F)C3)CC1CC#N (stereo partly drawn) [Example 447, 2-(1-Acryloyl-4-(7-(2-(difluoromethyl)phenyl)-2-(((S)-1-methylpyrrolidin-2-yl)methoxy)-5,6,7,8-tetrahydropyrido[3,4-d]pyrimidin-4-yl)piperazin-2-yl)acetonitrile] | 0.1 to 1000 | 
C (“C”>50% POC) | C=CC(=O)N1CCN(c2nc(OC[C@@H]3CCCN3C)nc3c2CCN(c2c(Cl)ccc4[nH]ncc24)C3)CC1 [Example 250, 1-[4-[7-(5-chloro-1H-indazol-4-yl)-2-[[(2S)-1-methylpyrrolidin-2-yl]methoxy]-6,8-dihydro-5H-pyrido[3,4-d]pyrimidin-4-yl]piperazin-1-yl]prop-2-en-1-one] | > 1000 | 
C (“C”>50% POC) | C=CC(=O)N1CCN(c2nc(OC[C@@H]3CCCN3C)nc3c2CCN(c2cncc(Cl)c2C(F)(F)F)C3)C[C@@H]1CC#N [Example 385, 2-((S)-1-acryloyl-4-(7-(5-chloro-4-(trifluoromethyl)pyridin-3-yl)-2-(((S)-1-methylpyrrolidin-2-yl)methoxy)-5,6,7,8-tetrahydropyrido[3,4-d]pyrimidin-4-yl)piperazin-2-yl)acetonitrile] | 0.1 to 1000 | 
C (“C”>50% POC) | C=CC(=O)N1CCN(c2nc(OC[C@@H]3CCCN3C)nc3c2CCN(c2nncc4ccccc24)C3)C[C@@H]1CC#N [Example 430, 2-((S)-1-acryloyl-4-(2-(((S)-1-methylpyrrolidin-2-yl)methoxy)-7-(phthalazin-1-yl)-5,6,7,8-tetrahydropyrido[3,4-d]pyrimidin-4-yl)piperazin-2-yl)acetonitrile] | > 1000 | 
A (“A”≤25% POC) | C=CC(=O)N1CCN(c2nc(OC[C@@H]3CCCN3C)nc3c2CCN(c2cccc4cnccc24)C3)CC1CC#N (stereo partly drawn) [Example 292, 2-[4-[7-(5-isoquinolyl)-2-[[(2S)-1-methylpyrrolidin-2-yl]methoxy]-6,8-dihydro-5H-pyrido[3,4-d]pyrimidin-4-yl]-1-prop-2-enoyl-piperazin-2-yl]acetonitrile] |  | IC50 [1, 5]: > 1000 nM
C (“C”>50% POC) | C=CC(=O)N1CCN(c2nc(OC[C@@H]3CCCN3CCO)nc3c2CCN(c2cccc4ccccc24)C3)C[C@@H]1CC#N [Example 341, 2-((S)-1-acryloyl-4-(2-(((S)-1-(2-hydroxyethyl)pyrrolidin-2-yl)methoxy)-7-(naphthalen-1-yl)-5,6,7,8-tetrahydropyrido[3,4-d]pyrimidin-4-yl)piperazin-2-yl)acetonitrile] | 0.1 to 1000 | 
C (“C”>50% POC) | C=CC(=O)N1CCN(c2nc(OC[C@@H]3CCCN3C)nc3c2CCN(c2cccc(Cl)c2C(F)(F)F)C3)CC1CC#N (stereo partly drawn) [Example 413, 2-(1-acryloyl-4-(7-(3-chloro-2-(trifluoromethyl)phenyl)-2-(((S)-1-methylpyrrolidin-2-yl)methoxy)-5,6,7,8-tetrahydropyrido[3,4-d]pyrimidin-4-yl)piperazin-2-yl)acetonitrile] |  | IC50 [1, 5]: 0.1 to 1000 nM
C (“C”>50% POC) | C=CC(=O)N1CCN(c2nc(OC[C@@H]3CCN(C)C3)nc3c2CCN(c2ccccc2C(F)(F)F)C3)CC1CC#N (stereo partly drawn) [Example 298, 2-(1-acryloyl-4-(2-(((R)-1-methylpyrrolidin-3-yl)methoxy)-7-(2-(trifluoromethyl)phenyl)-5,6,7,8-tetrahydropyrido[3,4-d]pyrimidin-4-yl)piperazin-2-yl)acetonitrile] |  | IC50 [1, 5]: 0.1 to 1000 nM
A (“A”≤25% POC) | C=C(C)C(=O)N1CCN(c2nc(OC[C@@H]3CCCN3C)nc3c2CCN(c2cccc4ccccc24)C3)CC1CC#N (stereo partly drawn) [Example 261, 2-[1-(2-methylprop-2-enoyl)-4-[2-[[(2S)-1-methylpyrrolidin-2-yl]methoxy]-7-(1-naphthyl)-6,8-dihydro-5H-pyrido[3,4-d]pyrimidin-4-yl]piperazin-2-yl]acetonitrile] | > 1000 | 
C (“C”>50% POC) | C=CC(=O)N1CCN(c2nc(OC[C@@H]3CCCN3C)nc3c2CCN(c2cccc(C)c2Cl)C3)C[C@@H]1CC#N [Example 424, 2-((S)-1-acryloyl-4-(7-(2-chloro-3-methylphenyl)-2-(((S)-1-methylpyrrolidin-2-yl)methoxy)-5,6,7,8-tetrahydropyrido[3,4-d]pyrimidin-4-yl)piperazin-2-yl)acetonitrile] | 0.1 to 1000 | 
